US7244431B2, “Allergy vaccines and their preparation” (priority 2000, dated 2007)

Experiments:
[1] = tested on: birch pollen allergic patients; test: Skin prick testing of allergic patients; format: in vivo, human; conditions: 100 μg/ml
Method: SPTs were performed on the individuals forearms as described ([…]. et al. (1997) J. Clin Invest. 99, 1673-168; Dreborg S: (1989) J. Am. Acad. DerMatol. 21, 820-821). […] In addition standardized skin prick solutions (birch pollen extract and histamine) (Allergopharma, Reinbek, Germany) were tested. Reactions were recorded 20 minutes after SPT by photography and by transferring the ballpoint pen-surrounded wheal area with a scotch tape to paper.

[2] = tested on: IgE antibodies in sera from birch pollen allergic patients; test: ELISA detection of peptide- and rBet v 1-specific IgE antibodies; format: binding, human
Method: Birch pollen allergic patients suffering from allergic rhinoconjunctivitis and/or asthma to birch pollen and related allergens were selected according to case history indicative for seasonal birch pollinosis and characterized by skin prick testing with birch pollen extract and serological CAP RAST (Pharmacia Diagnostics, Uppsala, Sweden) testing. Total IgE levels in the sera were determined by CAP RIST measurements (Pharmacia). […] Sera from 60 birch pollen allergic patients and a non-atopic individual were used for IgE competition studies. The birch pollen allergic patients group consisted of 25 males and 35 females with a mean age of 37 years (ranging from 19-60 years) (Table 2).
Subsequently, plates were incubated with 1:3 diluted sera from 60 birch pollen allergic patients and from a non-atopic individual overnight at 4° C. Bound IgE antibodies were detected with a 1:1000 diluted alkaline-phosphatase-coupled mouse monoclonal anti-human IgE antibody (Pharmingen, San Diego, Calif.).

DGGSILKISNKYHTKGDHEVKAEQVKASKEC [Peptide P4, Bet v 1-derived synthetic peptide, position aa 110-139, one cysteine added]
mean wheal diameter ([1]; individual 1): 0 mm
mean wheal diameter ([1]; individual 2): 0 mm
mean wheal diameter ([1]; individual 3): 0 mm
mean wheal diameter ([1]; individual 4): 0 mm
mean wheal diameter ([1]; individual 5): 0 mm
mean wheal diameter ([1]; individual 6 (allergic, without birch pollen allergy)): 0 mm
IgE (OD) ([2]; serum of NHS, non-allergic control individual): — (Dashes indicate reactivities below the cut-off level (OD=0.050))
IgE (OD) ([2]; serum of patient 1): — (Dashes indicate reactivities below the cut-off level (OD=0.050))
IgE (OD) ([2]; serum of patient 2): — (Dashes indicate reactivities below the cut-off level (OD=0.050))
IgE (OD) ([2]; serum of patient 3): — (Dashes indicate reactivities below the cut-off level (OD=0.050))
IgE (OD) ([2]; serum of patient 4): — (Dashes indicate reactivities below the cut-off level (OD=0.050))
IgE (OD) ([2]; serum of patient 5): — (Dashes indicate reactivities below the cut-off level (OD=0.050))
IgE (OD) ([2]; serum of patient 6): — (Dashes indicate reactivities below the cut-off level (OD=0.050))
IgE (OD) ([2]; serum of patient 7): — (Dashes indicate reactivities below the cut-off level (OD=0.050))
IgE (OD) ([2]; serum of patient 8): — (Dashes indicate reactivities below the cut-off level (OD=0.050))
IgE (OD) ([2]; serum of patient 9): — (Dashes indicate reactivities below the cut-off level (OD=0.050))
IgE (OD) ([2]; serum of patient 10): — (Dashes indicate reactivities below the cut-off level (OD=0.050))
IgE (OD) ([2]; serum of patient 11): — (Dashes indicate reactivities below the cut-off level (OD=0.050))
IgE (OD) ([2]; serum of patient 12): — (Dashes indicate reactivities below the cut-off level (OD=0.050))
IgE (OD) ([2]; serum of patient 13): — (Dashes indicate reactivities below the cut-off level (OD=0.050))
IgE (OD) ([2]; serum of patient 14): — (Dashes indicate reactivities below the cut-off level (OD=0.050))
IgE (OD) ([2]; serum of patient 15): — (Dashes indicate reactivities below the cut-off level (OD=0.050))
IgE (OD) ([2]; serum of patient 16): — (Dashes indicate reactivities below the cut-off level (OD=0.050))
IgE (OD) ([2]; serum of patient 17): — (Dashes indicate reactivities below the cut-off level (OD=0.050))
IgE (OD) ([2]; serum of patient 18): — (Dashes indicate reactivities below the cut-off level (OD=0.050))
IgE (OD) ([2]; serum of patient 19): — (Dashes indicate reactivities below the cut-off level (OD=0.050))
IgE (OD) ([2]; serum of patient 20): — (Dashes indicate reactivities below the cut-off level (OD=0.050))
IgE (OD) ([2]; serum of patient 21): — (Dashes indicate reactivities below the cut-off level (OD=0.050))
IgE (OD) ([2]; serum of patient 22): — (Dashes indicate reactivities below the cut-off level (OD=0.050))
IgE (OD) ([2]; serum of patient 23): — (Dashes indicate reactivities below the cut-off level (OD=0.050))
IgE (OD) ([2]; serum of patient 24): — (Dashes indicate reactivities below the cut-off level (OD=0.050))
IgE (OD) ([2]; serum of patient 25): — (Dashes indicate reactivities below the cut-off level (OD=0.050))
IgE (OD) ([2]; serum of patient 26): — (Dashes indicate reactivities below the cut-off level (OD=0.050))
IgE (OD) ([2]; serum of patient 27): — (Dashes indicate reactivities below the cut-off level (OD=0.050))
IgE (OD) ([2]; serum of patient 28): — (Dashes indicate reactivities below the cut-off level (OD=0.050))
IgE (OD) ([2]; serum of patient 29): — (Dashes indicate reactivities below the cut-off level (OD=0.050))
IgE (OD) ([2]; serum of patient 30): — (Dashes indicate reactivities below the cut-off level (OD=0.050))
IgE (OD) ([2]; serum of patient 31): — (Dashes indicate reactivities below the cut-off level (OD=0.050))
IgE (OD) ([2]; serum of patient 32): — (Dashes indicate reactivities below the cut-off level (OD=0.050))
IgE (OD) ([2]; serum of patient 33): — (Dashes indicate reactivities below the cut-off level (OD=0.050))
IgE (OD) ([2]; serum of patient 34): — (Dashes indicate reactivities below the cut-off level (OD=0.050))
IgE (OD) ([2]; serum of patient 35): — (Dashes indicate reactivities below the cut-off level (OD=0.050))
IgE (OD) ([2]; serum of patient 36): — (Dashes indicate reactivities below the cut-off level (OD=0.050))
IgE (OD) ([2]; serum of patient 37): — (Dashes indicate reactivities below the cut-off level (OD=0.050))
IgE (OD) ([2]; serum of patient 38): — (Dashes indicate reactivities below the cut-off level (OD=0.050))
IgE (OD) ([2]; serum of patient 39): — (Dashes indicate reactivities below the cut-off level (OD=0.050))
IgE (OD) ([2]; serum of patient 40): — (Dashes indicate reactivities below the cut-off level (OD=0.050))
IgE (OD) ([2]; serum of patient 41): — (Dashes indicate reactivities below the cut-off level (OD=0.050))
IgE (OD) ([2]; serum of patient 42): — (Dashes indicate reactivities below the cut-off level (OD=0.050))
IgE (OD) ([2]; serum of patient 43): — (Dashes indicate reactivities below the cut-off level (OD=0.050))
IgE (OD) ([2]; serum of patient 44): — (Dashes indicate reactivities below the cut-off level (OD=0.050))
IgE (OD) ([2]; serum of patient 45): — (Dashes indicate reactivities below the cut-off level (OD=0.050))
IgE (OD) ([2]; serum of patient 46): — (Dashes indicate reactivities below the cut-off level (OD=0.050))
IgE (OD) ([2]; serum of patient 47): — (Dashes indicate reactivities below the cut-off level (OD=0.050))
IgE (OD) ([2]; serum of patient 48): — (Dashes indicate reactivities below the cut-off level (OD=0.050))
IgE (OD) ([2]; serum of patient 49): — (Dashes indicate reactivities below the cut-off level (OD=0.050))
IgE (OD) ([2]; serum of patient 50): — (Dashes indicate reactivities below the cut-off level (OD=0.050))
IgE (OD) ([2]; serum of patient 51): — (Dashes indicate reactivities below the cut-off level (OD=0.050))
IgE (OD) ([2]; serum of patient 52): — (Dashes indicate reactivities below the cut-off level (OD=0.050))
IgE (OD) ([2]; serum of patient 53): — (Dashes indicate reactivities below the cut-off level (OD=0.050))
IgE (OD) ([2]; serum of patient 54): — (Dashes indicate reactivities below the cut-off level (OD=0.050))
IgE (OD) ([2]; serum of patient 55): — (Dashes indicate reactivities below the cut-off level (OD=0.050))
IgE (OD) ([2]; serum of patient 56): — (Dashes indicate reactivities below the cut-off level (OD=0.050))
IgE (OD) ([2]; serum of patient 57): — (Dashes indicate reactivities below the cut-off level (OD=0.050))
IgE (OD) ([2]; serum of patient 58): — (Dashes indicate reactivities below the cut-off level (OD=0.050))
IgE (OD) ([2]; serum of patient 59): — (Dashes indicate reactivities below the cut-off level (OD=0.050))
IgE (OD) ([2]; serum of patient 60): — (Dashes indicate reactivities below the cut-off level (OD=0.050))
